ChEMBL document CHEMBL3217588, “Discovery and activity profiling of thailandepsins A through F, potent histone deacetylase inhibitors, from Burkholderia thailandensis E264” (Medchemcomm, 2012)

Legend:
[1] = molecular target: T1, Protein deacetylase HDAC6 (Homo sapiens, UniProt Q9UBN7); assay: Inhibition of human recombinant HDAC6 after 1 hr by luminescence assay
T1 sequence (Q9UBN7 whole entry): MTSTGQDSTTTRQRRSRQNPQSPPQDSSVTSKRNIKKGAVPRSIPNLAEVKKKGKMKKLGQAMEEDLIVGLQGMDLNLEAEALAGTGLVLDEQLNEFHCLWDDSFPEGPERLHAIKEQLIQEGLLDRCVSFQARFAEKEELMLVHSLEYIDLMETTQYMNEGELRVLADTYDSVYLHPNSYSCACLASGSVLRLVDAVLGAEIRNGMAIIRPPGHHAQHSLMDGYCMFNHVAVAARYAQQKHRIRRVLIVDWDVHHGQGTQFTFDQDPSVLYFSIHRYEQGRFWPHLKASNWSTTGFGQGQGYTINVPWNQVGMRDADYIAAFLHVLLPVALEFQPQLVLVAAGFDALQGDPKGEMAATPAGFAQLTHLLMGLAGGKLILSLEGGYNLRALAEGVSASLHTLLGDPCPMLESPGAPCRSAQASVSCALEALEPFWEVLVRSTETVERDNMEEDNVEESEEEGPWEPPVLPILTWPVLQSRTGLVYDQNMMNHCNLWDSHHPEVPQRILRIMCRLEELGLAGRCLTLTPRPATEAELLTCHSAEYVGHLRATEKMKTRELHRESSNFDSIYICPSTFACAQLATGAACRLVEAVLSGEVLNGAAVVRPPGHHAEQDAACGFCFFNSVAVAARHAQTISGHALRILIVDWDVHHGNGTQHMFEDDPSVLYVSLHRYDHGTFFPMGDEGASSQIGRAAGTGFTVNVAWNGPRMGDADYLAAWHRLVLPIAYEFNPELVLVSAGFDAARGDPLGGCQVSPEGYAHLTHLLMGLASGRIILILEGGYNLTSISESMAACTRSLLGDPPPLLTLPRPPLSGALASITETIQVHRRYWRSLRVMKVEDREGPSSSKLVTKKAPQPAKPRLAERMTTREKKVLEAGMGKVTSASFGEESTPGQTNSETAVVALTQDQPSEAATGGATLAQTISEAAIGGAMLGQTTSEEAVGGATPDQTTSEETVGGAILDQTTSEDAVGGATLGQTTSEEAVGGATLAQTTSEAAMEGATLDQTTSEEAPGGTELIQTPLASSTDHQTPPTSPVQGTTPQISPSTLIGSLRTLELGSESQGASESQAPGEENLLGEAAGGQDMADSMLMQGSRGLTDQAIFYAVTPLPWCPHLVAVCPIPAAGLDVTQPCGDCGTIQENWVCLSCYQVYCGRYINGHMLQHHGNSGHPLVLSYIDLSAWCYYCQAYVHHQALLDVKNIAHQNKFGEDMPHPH

[2] = molecular target: Histone deacetylase 1 (Homo sapiens, UniProt Q13547); assay: Inhibition of human recombinant HDAC1 after 1 hr by luminescence assay
[3] = molecular target: Histone deacetylase 4 (Homo sapiens, UniProt P56524); assay: Inhibition of human recombinant HDAC4 after 1 hr by luminescence assay
Sequence of Histone deacetylase 4 (P56524 whole entry): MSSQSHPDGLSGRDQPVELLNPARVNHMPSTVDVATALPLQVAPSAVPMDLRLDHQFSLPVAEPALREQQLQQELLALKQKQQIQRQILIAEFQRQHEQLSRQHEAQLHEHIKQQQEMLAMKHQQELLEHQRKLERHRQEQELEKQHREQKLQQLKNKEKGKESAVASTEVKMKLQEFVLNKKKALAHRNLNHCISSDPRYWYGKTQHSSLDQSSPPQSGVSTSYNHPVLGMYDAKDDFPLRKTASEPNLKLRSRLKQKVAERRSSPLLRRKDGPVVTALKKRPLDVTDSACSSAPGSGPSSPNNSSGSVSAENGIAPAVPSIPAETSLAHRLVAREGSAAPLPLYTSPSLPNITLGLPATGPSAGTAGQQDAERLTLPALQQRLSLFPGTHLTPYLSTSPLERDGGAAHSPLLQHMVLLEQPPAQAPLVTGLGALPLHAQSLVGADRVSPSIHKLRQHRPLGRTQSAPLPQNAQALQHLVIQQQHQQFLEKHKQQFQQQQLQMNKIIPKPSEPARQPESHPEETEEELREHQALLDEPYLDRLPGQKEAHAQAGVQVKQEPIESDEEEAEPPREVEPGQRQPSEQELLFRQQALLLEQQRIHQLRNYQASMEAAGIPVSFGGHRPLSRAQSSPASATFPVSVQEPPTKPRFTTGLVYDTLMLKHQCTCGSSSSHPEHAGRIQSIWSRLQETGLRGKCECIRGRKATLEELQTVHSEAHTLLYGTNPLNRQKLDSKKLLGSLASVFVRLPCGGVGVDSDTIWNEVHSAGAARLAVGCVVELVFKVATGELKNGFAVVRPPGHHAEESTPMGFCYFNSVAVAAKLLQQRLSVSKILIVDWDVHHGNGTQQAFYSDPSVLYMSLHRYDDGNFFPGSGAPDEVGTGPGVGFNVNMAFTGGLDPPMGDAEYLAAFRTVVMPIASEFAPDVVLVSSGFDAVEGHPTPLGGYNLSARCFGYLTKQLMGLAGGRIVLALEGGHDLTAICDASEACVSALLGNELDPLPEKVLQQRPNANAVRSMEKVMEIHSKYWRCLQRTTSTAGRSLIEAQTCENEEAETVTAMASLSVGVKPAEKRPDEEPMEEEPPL

Sequence of Histone deacetylase 1 (Q13547 whole entry): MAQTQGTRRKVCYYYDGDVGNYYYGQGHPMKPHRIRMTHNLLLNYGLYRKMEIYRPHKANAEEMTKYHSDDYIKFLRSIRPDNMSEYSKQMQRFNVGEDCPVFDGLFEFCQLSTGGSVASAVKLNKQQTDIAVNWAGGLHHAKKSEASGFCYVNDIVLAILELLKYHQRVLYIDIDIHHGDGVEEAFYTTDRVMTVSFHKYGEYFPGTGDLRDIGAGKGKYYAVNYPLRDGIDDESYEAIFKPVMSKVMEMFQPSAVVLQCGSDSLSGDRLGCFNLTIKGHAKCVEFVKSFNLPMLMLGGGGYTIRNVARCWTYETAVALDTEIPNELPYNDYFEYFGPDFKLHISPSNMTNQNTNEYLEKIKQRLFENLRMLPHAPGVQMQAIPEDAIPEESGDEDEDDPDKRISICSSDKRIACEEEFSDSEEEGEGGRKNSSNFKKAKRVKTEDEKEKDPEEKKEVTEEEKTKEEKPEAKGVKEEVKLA

Structure (SMILES)	IC50 [1]	IC50 [2]	IC50 [3]
CSCC[C@H]1NC(=O)C[C@H]2/C=C/CCSSC[C@@H](NC1=O)C(=O)N[C@H](C(C)C)[C@@H](O)CC(=O)O2	780 nM	0.2 nM	38000 nM
CCCC[C@H]1NC(=O)C[C@H]2/C=C/CCSSC[C@@H](NC1=O)C(=O)N[C@H](C(C)C)[C@@H](O)CC(=O)O2	930 nM	0.48 nM	47000 nM
CSCC[C@H]1NC(=O)C[C@H]2/C=C/CCSSC[C@@H](NC1=O)C(=O)N[C@H](CC(C)C)[C@@H](O)CC(=O)O2	1680 nM	0.94 nM	58900 nM
CCCC[C@H]1NC(=O)C[C@H]2/C=C/CCSSC[C@@H](NC1=O)C(=O)N[C@H](CC(C)C)[C@@H](O)CC(=O)O2	1920 nM	2.6 nM	132000 nM
C/C=C1\NC(=O)[C@H]2CSSCC/C=C/[C@H](CC(=O)N[C@H](C(C)C)C(=O)N2)OC(=O)[C@H](C(C)C)NC1=O [ROMIDEPSIN]	–	–	8670 nM
CC[C@H](C)[C@H]1NC(=O)[C@H]2CSSCC/C=C/[C@H](CC(=O)N[C@H](CCSC)C(=O)N2)OC(=O)C[C@@H]1O [THAILANDEPSIN A]	830 nM	0.28 nM	37200 nM
CCCC[C@H]1NC(=O)C[C@H]2/C=C/CCSSC[C@@H](NC1=O)C(=O)N[C@H]([C@@H](C)CC)[C@@H](O)CC(=O)O2 [THAILANDEPSIN B]	1190 nM	1.2 nM	57400 nM
